Experimental data: patent US20240158391A1, “DERIVATIVES OF 4-(IMIDAZO[1,2-A]PYRIDIN-3-YL)-N-(PYRIDIN-3-YL) PYRIMIDIN-2- AMINE FOR TREATING PROLIFERATIVE DISEASES AND CONDITIONS” (AUCENTRA THERAPEUTICS PTY LTD, priority 2019, published 2024)

How the values were obtained:
CDK7/CyclinH/Mat1 = CDK7/CyclinH/Mat1 (Homo sapiens, UniProt P50613); assay: ADP Glo kinase assay, CDK7/CyclinH/Mat1; assay type: biochemical; details: compound at 1 μM, read-out: Residual enzymatic activity (%) at 1 μM, CDK7 H
Method: (§1) Test compounds are used in 1:3 serial dilutions for 10 concentrations (from 10-0.0005 μM) in 0.5% DMSO. […] The kinase reactions are run for optimised time period at room temperature and then the reaction is stopped by adding 5 μL of ADP Glo reagent.

CDK9/CyclinT1 = CDK9/CyclinT1 (Homo sapiens, UniProt P50750); assay: ADP Glo kinase assay, CDK9/CyclinT1; assay type: biochemical; details: CDK9/CyclinT1; Km ATP; read-out: Enzymatic inhibition, Ki, CDK9 T1
CDK9/CyclinT1, sequence (P50750 whole entry, species assumed): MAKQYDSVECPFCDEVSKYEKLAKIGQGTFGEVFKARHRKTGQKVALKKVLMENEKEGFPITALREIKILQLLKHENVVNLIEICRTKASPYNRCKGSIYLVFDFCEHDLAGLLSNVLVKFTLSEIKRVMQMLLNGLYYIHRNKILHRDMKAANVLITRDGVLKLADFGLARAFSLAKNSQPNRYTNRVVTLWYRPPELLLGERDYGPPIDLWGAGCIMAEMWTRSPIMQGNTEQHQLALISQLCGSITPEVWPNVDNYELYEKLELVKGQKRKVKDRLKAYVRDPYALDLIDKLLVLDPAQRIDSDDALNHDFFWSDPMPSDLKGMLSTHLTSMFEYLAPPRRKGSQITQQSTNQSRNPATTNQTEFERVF
CDK9/CyclinT1, sequence (O60563 whole entry partner, species assumed): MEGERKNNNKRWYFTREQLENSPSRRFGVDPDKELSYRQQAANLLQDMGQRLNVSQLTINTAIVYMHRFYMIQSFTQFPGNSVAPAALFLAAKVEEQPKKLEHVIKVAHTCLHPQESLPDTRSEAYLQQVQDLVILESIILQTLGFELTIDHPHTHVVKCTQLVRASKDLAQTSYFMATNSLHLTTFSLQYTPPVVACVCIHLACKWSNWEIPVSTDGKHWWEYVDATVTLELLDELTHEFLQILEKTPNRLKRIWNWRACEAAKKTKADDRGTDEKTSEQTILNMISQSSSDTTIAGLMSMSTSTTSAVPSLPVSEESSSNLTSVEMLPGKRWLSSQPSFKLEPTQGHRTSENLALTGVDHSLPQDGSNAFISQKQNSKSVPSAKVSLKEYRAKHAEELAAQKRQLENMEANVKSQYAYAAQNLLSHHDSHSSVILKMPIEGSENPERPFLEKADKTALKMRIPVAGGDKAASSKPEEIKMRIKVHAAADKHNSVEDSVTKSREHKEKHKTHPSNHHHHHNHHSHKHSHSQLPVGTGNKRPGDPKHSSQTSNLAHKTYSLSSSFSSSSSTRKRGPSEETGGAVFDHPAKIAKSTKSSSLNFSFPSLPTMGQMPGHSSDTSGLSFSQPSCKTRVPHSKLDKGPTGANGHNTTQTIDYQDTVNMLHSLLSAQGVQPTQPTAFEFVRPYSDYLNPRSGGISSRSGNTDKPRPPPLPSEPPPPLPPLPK
Method: as §1

CDK2/CyclinA2 = CDK2/CyclinA2 (Homo sapiens, UniProt P24941); assay: ADP Glo kinase assay, CDK2/CyclinA2; assay type: biochemical; details: for remaining activity at 1 µM: compound at 1 μM, read-out: Residual enzymatic activity (%) at 1 μM, CDK2 A; for Ki: Km ATP, read-out: Enzymatic inhibition, Ki, CDK2 A
Method: as §1

MV-4-11 = assay: Proliferation assay (resazurin, leukemia cell lines), MV-4-11; assay type: cell-based; details: Homo sapiens, MV4-11, read-out: 72 h Growth inhibition GI50, MV-4-11 cells
From the text: The following compounds were used as comparators.

FLT3-ITD = target: T1, FLT3-ITD (Homo sapiens, UniProt P36888); assay: ADP Glo kinase assay, FLT3-ITD; assay type: biochemical; details: for Ki: Km ATP 100 μM, read-out: Enzymatic inhibition, Ki, FLT3-ITD
T1 sequence (P36888 1-993): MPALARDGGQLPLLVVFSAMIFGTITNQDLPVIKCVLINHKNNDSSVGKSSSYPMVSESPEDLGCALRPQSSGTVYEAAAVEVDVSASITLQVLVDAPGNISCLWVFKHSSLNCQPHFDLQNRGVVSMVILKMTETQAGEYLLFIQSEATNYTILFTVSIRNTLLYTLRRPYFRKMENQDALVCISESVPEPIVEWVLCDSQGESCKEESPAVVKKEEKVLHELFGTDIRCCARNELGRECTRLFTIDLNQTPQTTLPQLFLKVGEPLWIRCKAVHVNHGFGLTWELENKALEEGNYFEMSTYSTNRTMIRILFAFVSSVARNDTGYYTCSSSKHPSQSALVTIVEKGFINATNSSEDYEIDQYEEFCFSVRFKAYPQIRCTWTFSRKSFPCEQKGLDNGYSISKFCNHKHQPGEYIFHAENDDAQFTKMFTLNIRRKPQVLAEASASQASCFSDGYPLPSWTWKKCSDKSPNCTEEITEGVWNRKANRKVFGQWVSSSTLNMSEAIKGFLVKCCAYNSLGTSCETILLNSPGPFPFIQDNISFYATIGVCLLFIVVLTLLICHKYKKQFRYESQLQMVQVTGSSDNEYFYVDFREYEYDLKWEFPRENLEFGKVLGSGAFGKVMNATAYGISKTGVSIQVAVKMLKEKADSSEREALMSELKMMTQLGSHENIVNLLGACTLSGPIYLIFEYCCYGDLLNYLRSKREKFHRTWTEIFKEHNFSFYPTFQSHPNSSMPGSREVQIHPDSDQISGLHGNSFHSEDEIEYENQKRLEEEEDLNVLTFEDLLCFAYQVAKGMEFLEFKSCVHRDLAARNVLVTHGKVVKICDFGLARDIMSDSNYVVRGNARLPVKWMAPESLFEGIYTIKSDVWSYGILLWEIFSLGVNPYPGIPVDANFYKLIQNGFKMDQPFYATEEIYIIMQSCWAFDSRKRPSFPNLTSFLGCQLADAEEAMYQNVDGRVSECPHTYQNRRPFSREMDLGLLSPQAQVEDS
Method: as §1

CDK1/CyclinB = CDK1/CyclinB (Homo sapiens, UniProt P06493); assay: ADP Glo kinase assay, CDK1/CyclinB; assay type: biochemical; details: for remaining activity at 1 µM: compound at 1 μM, read-out: Residual enzymatic activity (%) at 1 μM, CDK1 B
CDK1/CyclinB, sequence (P06493 whole entry, species assumed): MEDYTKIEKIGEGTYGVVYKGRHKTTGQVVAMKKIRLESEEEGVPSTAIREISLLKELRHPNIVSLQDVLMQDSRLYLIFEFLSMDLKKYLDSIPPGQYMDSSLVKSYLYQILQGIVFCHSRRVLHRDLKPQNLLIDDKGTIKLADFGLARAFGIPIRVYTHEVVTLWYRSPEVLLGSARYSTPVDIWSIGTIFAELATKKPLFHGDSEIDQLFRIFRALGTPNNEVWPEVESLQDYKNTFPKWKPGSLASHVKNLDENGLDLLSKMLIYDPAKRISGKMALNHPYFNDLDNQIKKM
CDK1/CyclinB, sequence (P14635 whole entry partner, species assumed): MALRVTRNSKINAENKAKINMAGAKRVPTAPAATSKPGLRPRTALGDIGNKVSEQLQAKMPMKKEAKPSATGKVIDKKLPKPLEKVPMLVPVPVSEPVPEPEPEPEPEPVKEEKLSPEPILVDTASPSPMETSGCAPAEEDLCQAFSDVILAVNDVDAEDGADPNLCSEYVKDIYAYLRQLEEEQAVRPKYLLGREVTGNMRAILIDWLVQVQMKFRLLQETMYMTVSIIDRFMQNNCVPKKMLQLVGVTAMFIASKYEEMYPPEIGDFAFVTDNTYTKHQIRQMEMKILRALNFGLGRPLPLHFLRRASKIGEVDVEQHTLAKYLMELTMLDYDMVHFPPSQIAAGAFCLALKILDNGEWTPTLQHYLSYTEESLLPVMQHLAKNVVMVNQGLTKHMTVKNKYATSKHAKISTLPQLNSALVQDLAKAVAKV
Method: as §1

CDK6/CyclinD3 = CDK6/CyclinD3 (Homo sapiens, UniProt Q00534); assay: ADP Glo kinase assay, CDK6/CyclinD3; assay type: biochemical; details: compound at 1 μM, read-out: Residual enzymatic activity (%) at 1 μM, CDK6 D3
CDK6/CyclinD3, sequence (Q00534 whole entry, species assumed): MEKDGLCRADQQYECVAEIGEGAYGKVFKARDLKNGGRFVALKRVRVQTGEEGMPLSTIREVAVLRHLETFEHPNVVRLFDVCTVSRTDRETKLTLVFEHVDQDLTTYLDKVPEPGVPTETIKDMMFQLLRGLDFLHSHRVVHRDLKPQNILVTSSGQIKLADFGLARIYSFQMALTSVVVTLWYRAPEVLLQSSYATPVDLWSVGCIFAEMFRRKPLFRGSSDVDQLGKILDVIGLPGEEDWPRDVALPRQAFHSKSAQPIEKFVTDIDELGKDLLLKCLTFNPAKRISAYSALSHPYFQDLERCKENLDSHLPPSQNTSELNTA
CDK6/CyclinD3, sequence (P30281 whole entry partner, species assumed): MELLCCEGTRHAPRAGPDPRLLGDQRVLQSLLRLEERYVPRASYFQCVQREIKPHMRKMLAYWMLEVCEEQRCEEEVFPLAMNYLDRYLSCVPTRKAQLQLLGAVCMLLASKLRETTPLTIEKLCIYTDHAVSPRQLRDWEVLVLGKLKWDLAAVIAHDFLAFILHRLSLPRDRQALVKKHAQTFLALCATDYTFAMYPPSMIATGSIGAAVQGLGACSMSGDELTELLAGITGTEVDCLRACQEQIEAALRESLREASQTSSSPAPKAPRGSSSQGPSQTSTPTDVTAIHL
Method: as §1

CDK7/CyclinH/Mat1, sequence (P50613 whole entry, species assumed): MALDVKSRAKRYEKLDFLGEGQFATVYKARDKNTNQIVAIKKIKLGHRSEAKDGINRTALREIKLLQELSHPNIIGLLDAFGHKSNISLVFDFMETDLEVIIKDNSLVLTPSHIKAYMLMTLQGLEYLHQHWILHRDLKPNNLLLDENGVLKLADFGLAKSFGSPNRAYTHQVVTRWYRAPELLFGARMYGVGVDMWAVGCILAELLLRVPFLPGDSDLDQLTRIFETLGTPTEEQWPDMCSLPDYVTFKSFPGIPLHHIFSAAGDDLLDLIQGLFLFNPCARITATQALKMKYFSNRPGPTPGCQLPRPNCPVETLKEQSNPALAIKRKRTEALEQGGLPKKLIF
CDK7/CyclinH/Mat1, sequence (P51946 whole entry partner, species assumed): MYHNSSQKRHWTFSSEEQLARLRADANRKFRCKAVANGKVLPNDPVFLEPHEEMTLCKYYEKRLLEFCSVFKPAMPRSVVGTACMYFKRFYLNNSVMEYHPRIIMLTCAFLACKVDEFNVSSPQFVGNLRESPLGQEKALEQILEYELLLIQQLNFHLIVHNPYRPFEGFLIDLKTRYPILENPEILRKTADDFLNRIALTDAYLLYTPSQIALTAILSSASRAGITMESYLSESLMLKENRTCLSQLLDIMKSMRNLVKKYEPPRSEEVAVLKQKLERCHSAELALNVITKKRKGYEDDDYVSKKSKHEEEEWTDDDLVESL
CDK7/CyclinH/Mat1, sequence (P51948 whole entry partner, species assumed): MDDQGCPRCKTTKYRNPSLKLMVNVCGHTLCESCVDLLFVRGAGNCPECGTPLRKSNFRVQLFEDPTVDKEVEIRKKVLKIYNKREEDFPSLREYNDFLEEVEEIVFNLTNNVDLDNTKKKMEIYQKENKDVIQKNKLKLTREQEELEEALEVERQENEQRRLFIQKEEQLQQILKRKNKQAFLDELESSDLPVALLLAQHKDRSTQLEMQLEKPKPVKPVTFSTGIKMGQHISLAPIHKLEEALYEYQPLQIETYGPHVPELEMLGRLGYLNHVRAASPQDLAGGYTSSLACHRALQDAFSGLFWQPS

remaining activity at 1 µM (CDK7/CyclinH/Mat1) [%]	Ki (CDK9/CyclinT1) [nM]	remaining activity at 1 µM (CDK2/CyclinA2) [%]	GI50 (MV-4-11) [nM]	Ki (FLT3-ITD) [nM]	remaining activity at 1 µM (CDK1/CyclinB) [%]	remaining activity at 1 µM (CDK6/CyclinD3) [%]	Compound	Ki (CDK2/CyclinA2) [nM]	Residual enzymatic activity (%) at 1 μM, FLT3-ITD (FLT3-ITD; compound at 1 μM) [%]	Ki (CDK1/CyclinB; Km ATP, read-out: Enzymatic inhibition, Ki, CDK1 B) [nM]
59	> 500	64	5	55	75	73	O=C1NCCC12CCN(c1ccc(Nc3nccc(-c4cnc5ccc(-c6ccccc6)cn45)n3)cn1)CC2 [Compound 72, 8-(5-((4-(6-Phenylimidazo[1,2-a]pyridin-3-yl)pyrimidin-2-yl)amino)pyridin-2-yl)-2,8-diazaspiro[4.5]decan-1-one]	–	–	–
38	26	90	2	6	57	66	COc1cc(F)cc(-c2ccc3ncc(-c4ccnc(Nc5ccc(N6CCN(C)CC6)nc5)n4)n3c2)c1 [Compound 64, 4-(6-(3-Fluoro-5-methoxyphenyl)imidazo[1,2-a]pyridin-3-yl)-N-(6-(4-methylpiperazin-1-yl)pyridin-3-yl)pyrimidin-2-amine]	–	–	–
56	92	75	46	71	71	66	CC(C)N1CCN(c2ccc(Nc3nccc(-c4cnc5ccc(-c6cncnc6)cn45)n3)cn2)CC1 [Compound 53, N-(6-(4-Isopropylpiperazin-1-yl)pyridin-3-yl)-4-(6-(pyrimidin-5-yl)imidazo[1,2-a]pyridin-3-yl)pyrimidin-2-amine]	–	–	–
66	83	86	–	–	87	–	CN1CCN(c2ccc(Nc3nccc(-c4cnc5ccc(-c6ccccc6)cn45)n3)nc2)CC1 [Comparator compound A, N-(5-(4-methylpiperazin-1-yl)pyridin-2-yl)-4-(6-phenylimidazo[1,2-a]pyridin-3-yl)pyrimidin-2-amine, reference compound]	–	–	–
71	174	61	13	62	37	81	CN(C)c1ccc(Nc2nccc(-c3cnc4ccc(-c5ccc(F)nc5)cn34)n2)cn1 [Compound 68, N^5-(4-(6-(6-Fluoropyridin-3-yl)imidazo[1,2-a]pyridin-3-yl)pyrimidin-2-yl)-N^2,N^2-dimethylpyridine-2,5-diamine]	–	–	–
99	> 500	97	23	57	62	100	CS(=O)(=O)N1CCN(c2ccc(Nc3nccc(-c4cnc5ccc(-c6cc7ccccc7o6)cn45)n3)cn2)CC1 [Compound 52, 4-(6-(Benzofuran-2-yl)imidazo[1,2-a]pyridin-3-yl)-N-(6-(4-(methylsulfonyl)piperazin-1-yl)pyridin-3-yl)pyrimidin-2-amine]	–	–	–
57	428	71	20	149	38	72	CCS(=O)(=O)N1CCN(c2ccc(Nc3nccc(-c4cnc5ccc(-c6ccc(F)nc6)cn45)n3)cn2)CC1 [Compound 61, N-(6-(4-(Ethylsulfonyl)piperazin-1-yl)pyridin-3-yl)-4-(6-(6-fluoropyridin-3-yl)imidazo[1,2-a]pyridin-3-yl)pyrimidin-2-amine]	–	–	–
91	> 500	74	12	24	95	97	O=C1NCCC12CCN(c1ccc(Nc3nccc(-c4cnc5ccc(Br)cn45)n3)cn1)CC2 [Compound 71, 8-(5-((4-(6-Bromoimidazo[1,2-a]pyridin-3-yl)pyrimidin-2-yl)amino)pyridin-2-yl)-2,8-diazaspiro[4.5]decan-1-one]	–	–	–
93	242	49	25	82	26	100	O=C(c1ccco1)N1CCN(c2ccc(Nc3nccc(-c4cnc5ccc(-c6ccccc6)cn45)n3)cn2)CC1 [Compound 63, Furan-2-yl(4-(5-((4-(6-phenylimidazo[1,2-a]pyridin-3-yl)pyrimidin-2-yl)amino)pyridin-2-yl)piperazin-1-yl)methanone]	–	–	–
94	380	36	23	84	78	96	CS(=O)(=O)N1CCN(c2ccc(Nc3nccc(-c4cnc5ccc(-c6ccc(F)nc6)cn45)n3)cn2)CC1 [Compound 56, 4-(6-(6-Fluoropyridin-3-yl)imidazo[1,2-a]pyridin-3-yl)-N-(6-(4-(methylsulfonyl)piperazin-1-yl)pyridin-3-yl)pyrimidin-2-amine]	–	–	–
100	509	91	20	142	61	100	CCS(=O)(=O)N1CCN(c2ccc(Nc3nccc(-c4cnc5ccc(-c6ccccc6)cn45)n3)cn2)CC1 [Compound 60, N-(6-(4-(Ethylsulfonyl)piperazin-1-yl)pyridin-3-yl)-4-(6-phenylimidazo[1,2-a]pyridin-3-yl)pyrimidin-2-amine]	–	–	–
38	36	62	116	28	50	55	CC(C)N1CCN(c2ccc(Nc3nccc(-c4cnc5ccc(-c6ccc(F)nc6)cn45)n3)cn2)CC1 [Compound 55, 4-(6-(6-Fluoropyridin-3-yl)imidazo[1,2-a]pyridin-3-yl)-N-(6-(4-isopropylpiperazin-1-yl)-pyridin-3-yl)pyrimidin-2-amine]	–	–	–
88	103	–	30	40	57	93	Brc1ccc2ncc(-c3ccnc(Nc4ccc(NC5CCOCC5)nc4)n3)n2c1 [Compound 57, N^5-(4-(6-Bromoimidazo[1,2-a]pyridin-3-yl)pyrimidin-2-yl)-N^2-(tetrahydro-2H-pyran-4-yl)pyridine-2,5-diamine]	56	–	–
40	7	55	8	12	32	57	CN1CCN(c2ccc(Nc3nccc(-c4cnc5ccc(-c6cnn(C(F)F)c6)cn45)n3)cn2)CC1 [Compound 70, 4-(6-(1-(Difluoromethyl)-1H-pyrazol-4-yl)imidazo[1,2-a]pyridin-3-yl)-N-(6-(4-methylpiperazin-1-yl)pyridin-3-yl)pyrimidin-2-amine]	–	–	–

Compound	remaining activity at 1 µM (CDK7/CyclinH/Mat1) [%]	Ki (CDK9/CyclinT1) [nM]	remaining activity at 1 µM (CDK2/CyclinA2) [%]	GI50 (MV-4-11) [nM]	Ki (FLT3-ITD) [nM]	remaining activity at 1 µM (CDK1/CyclinB) [%]	remaining activity at 1 µM (CDK6/CyclinD3) [%]	Ki (CDK2/CyclinA2) [nM]	Residual enzymatic activity (%) at 1 μM, FLT3-ITD (FLT3-ITD; compound at 1 μM) [%]	Ki (CDK1/CyclinB; Km ATP, read-out: Enzymatic inhibition, Ki, CDK1 B) [nM]
CN(C)c1ccc(Nc2nccc(-c3cnc4ccc(C5=CCNCC5)cn34)n2)cn1 [Compound 69, N^2,N^2-Dimethyl-N^5-(4-(6-(1,2,3,6-tetrahydropyridin-4-yl)imidazo[1,2-a]pyridin-3-yl)pyrimidin-2-yl)pyridine-2,5-diamine]	65	16	–	152	–	–	81	82	30	116
